Non-standard residues stand in square brackets, D forms with d. Residues, ends and D or L forms follow the SMILES beside them. *: point of attachment. DON = [N-]=[N+]=CC(=O)CC[C@H](N)C(=O)O; Cbz = O=C(OCc1ccccc1)*
Key:
EGFR = settings: cited from earlier work; for EGFR levels: U87, but not T98G cells, 24 hrs
[1] = system: glioblastoma multiforme (GBM) cell lines; settings: cited from earlier work
SCC-13 cells = experiment: Spheroid formation / survival assay, SCC-13 cells (ECS cells); assay type: cell-based, human; settings: for spheroid formation with kinase inhibitor: PF-573228 10 μM, 6 d
Experimental: Spheroid formation assay. Cells, maintained as monolayer cultures in growth medium consisting of DMEM (Invitrogen, Frederick, Md.) supplemented with 4.5 mg/ml D-glucose, […] L-glutamine, […] sodium pyruvate, and 5% fetal calf serum, were harvested, collected by centrifugation, and resuspended in spheroid medium comprising DMEM/F12 (1:1) (DMT-10-090-CV, Mediatech Inc., Manassas, Va.) supplemented with 2% B27 serum-free supplement (17504-044, Invitrogen, Frederick, Md.), 20 ng/ml EGF (E4269, Sigma, St. Louis, Mo.), 0.4% bovine serum albumin (B4287, Sigma) and 4 μg/ml insulin (19278 Sigma, St. Louis, Mo.). The cells (40,000) were plated in 9.6 cm^2 wells in Costar six well ultra-low attachment cluster dishes (4371, Corning, Tewksbury, Mass.). Spheroid size and number was monitored with time in culture as previously described (Adhikary, G. et al., PLoS One 8:e84324, 2013).
Spheroid formation assay. Spheroid formation assays were exactly as outlined previously (Adhikary, G. et al., PLoS ONE 8:e84324, 2013), except that the spheroids were grown in six well ultra-low attachment Costar cluster dishes (4371, Corning, Tewksbury, Mass.).
Spheroid formation assay. Spheroid formation assays were as reported previously (Adhikary, G. et al., PLoS One 8:e84324, 2013), except that the spheroids were grown in 6-well ultralow attachment Costar cluster dishes (Corning).

FAK kinase = FAK kinase (Homo sapiens, UniProt Q05397)
Experimental: SCC-13 cells (40,000 per well) were grown in spheroid medium in attached (monolayer) or non-attached (spheroid, ECS cell). Cells were collected after 10 d and lysates were prepared for immunoblot. In (B), SCC-13 cells spheroid were grown for 8 d and extracts were immunoprecipitated as indicated prior to immunoblot. […] Cells were grown in spheroid medium in monolayer culture for 10 d prior to collection of lysates for immunoblot. […] In (J), (K), and (L), cells were double-electroporated with indicated siRNA and 24 h later plated for spheroid formation in the presence of the indicated inhibitor. […] The plotted values are mean±SEM and asterisks indicate significant change compared to control, n=3, p<0.005.
Immunoblot. Equivalent amounts of protein were electrophoresed on denaturing and reducing 10% polyacrylamide gels and transferred to nitrocellulose membrane. […] Secondary antibody binding was visualized using ECL Prime (Amersham) chemiluminescence detection technology.

TG2 [2] = biological target: T1, TG2 (Homo sapiens, UniProt P21980); experiment: In vitro GTP binding assay after inhibition of hTG2 (BODIPY GTP-γ-S); settings: inhibitor 2×KI, 30 min; 3 μM GTP-γ-S FL BODIPY
T1 sequence (P21980 1-687): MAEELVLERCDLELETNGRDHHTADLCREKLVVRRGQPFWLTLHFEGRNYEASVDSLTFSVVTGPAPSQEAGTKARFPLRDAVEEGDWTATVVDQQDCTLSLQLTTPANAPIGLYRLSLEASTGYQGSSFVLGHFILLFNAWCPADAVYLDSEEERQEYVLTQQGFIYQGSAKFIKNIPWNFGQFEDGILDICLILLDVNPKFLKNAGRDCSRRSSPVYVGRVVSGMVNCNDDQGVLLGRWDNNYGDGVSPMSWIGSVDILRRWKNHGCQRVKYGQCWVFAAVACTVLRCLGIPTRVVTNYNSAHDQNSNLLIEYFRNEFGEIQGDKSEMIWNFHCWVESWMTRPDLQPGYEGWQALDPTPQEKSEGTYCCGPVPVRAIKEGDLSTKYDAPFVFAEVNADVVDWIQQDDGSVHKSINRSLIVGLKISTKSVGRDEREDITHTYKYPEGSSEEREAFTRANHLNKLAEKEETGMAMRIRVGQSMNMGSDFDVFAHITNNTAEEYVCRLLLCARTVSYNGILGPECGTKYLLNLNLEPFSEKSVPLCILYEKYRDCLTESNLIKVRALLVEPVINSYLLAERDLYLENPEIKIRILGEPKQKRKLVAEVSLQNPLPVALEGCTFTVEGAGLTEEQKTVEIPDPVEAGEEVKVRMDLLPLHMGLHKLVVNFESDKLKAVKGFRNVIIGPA
Experimental: In vitro GTP binding assay. GTP binding was measured using a method similar to that reported previously (McEwen, D. P. et al., Anal. Biochem. (2001), 291 (1): 109-117). […] The buffer was then exchanged to 100 mM MOPS (pH=7.0), 1 mM EGTA and 5 mM MgCl2 to remove calcium using a 10-kDa molecular weight cut off membrane. The fluorescent GTP analog was then added to give a final concentration of 3.0 μM and fluorescence was then measured on a microplate reader after 10 minutes of incubation (Ex/Em: 490/520 nm).

ΔNp63α = ΔNp63α level immunoblot, YAP1-siRNA SCC-13 cells; assay type: cell-based, human; settings: 1 μM lactacystin, 24 h
Experimental: In (A), cells were grown in spheroid medium in monolayer or spheroid culture and after 10 d harvested for immunoblot. In (B), SCC13-Control-shRNA and SCC13-TG2-shRNA2 cells were grown in monolayer culture in spheroid medium and lysates were collected for immunoblot detection of the indicated epitopes. […] In (F), SCC13-Control-shRNA and SCC13-TG2-shRNA2 cells were grown as monolayers in spheroid medium and lysates collected at 6 d for marker detection. In (G), SCC-13 cells were double-electroporated with Control- or TG2-siRNA and given 24 h to recover before being seeded on chamber slides. The following day, cells were fixed in 4% paraformaldehyde, stained with anti-YAP1 and appropriate secondary antibody, and co-stained with DAPI. In (H), SCC-13 cells, double-electroporated with Control- or TG2-siRNA, were grown in spheroid medium for 48 h prior to extracts being prepared for assay of ΔNp63α mRNA by qRT-PCR. In (I), SCC-13 cells were grown as spheroids and at day 8 lysates were collected for immunoprecipitation/immunoblot. In (J), SCC-13 cells were double-electroporated with Control- or YAP-siRNA followed by treatment with 1 μM lactacystin in monolayer culture. Extracts were prepared after an additional 24 h. In (K), SCC-13 cells were double-electroporated with Control- or YAPsiRNA and after 2 d in monolayer culture extracts were prepared for immunoblot. […]

[3] = system: TG2 fusion protein mCer-TG2-YFP; experiment: Fluorescence lifetime imaging (FLIM) of mCer-TG2-YFP conformation, SCC-13 cells; assay type: cell-based, human; settings: 10 μM A23187, 24 h; control 2.94 ns
Experimental: We monitored the impact of each inhibitor on intracellular TG2 structure using FLIM (Fluorescence Lifetime Imaging Microscopy). FLIM is a quantitative method of assessing fluorescence lifetime that measures energy transfer between donor and accept probes Fluorescence lifetime is measured in nanoseconds and a short lifetime correlates with close contact between probes (FIG. 29B). An advantage of this method is that fluorescent lifetimes are independent of probe concentration. In the present experiments, we expressed in cells a TG2 fusion protein in which the donor probe (mCER) is fused to the N-terminus and the acceptor probe (YFP) at the C-terminus (FIG. 29B). mCER and YFP comprise an ideal donor/acceptor pair; the donor probe is excited by laser illumination and energy transfer to the acceptor is monitored. The fluorescent lifetime is shorter when TG2 is in the closed conformation which brings mCER and YFP close together. SCC-13 cells were electroporated with empty vector, mCER-TG2 or mCER-TG2-YFP.
Fluorescence lifetime imaging. Fluorescence lifetime images were acquired using FLIM system (Alba 5 from ISS). […] Emission was observed through bandpass filter 480/35 nm (Chroma Technology) and detected by a photomultiplier H7422-40 (Hamamatsu). FLIM data were acquired using time-domain modality (SPC-830 TCSPC module from Becker and Hickl GmbH). […] To account for intensity heterogeneity within single intensity images, two to five consecutive scans were acquired and summed to build FLIM intensity image for lifetime analysis. […] FLIM data were analyzed using VistaVision Suite software (Vista v.213 from ISS). Lifetime images were generated by fitting data using single exponential intensity decay model. Intensity threshold for lifetime analysis was set of at least 3-fold above the intensity of dim cells and fitting procedure was performed for binned pixels at level of 3 (7×7 pixels). Lifetime distribution within image is represented with histogram showing pixel frequency of specific lifetime. The average lifetime values with standard deviations were calculated based on all processed pixels in lifetime image. FRET values were calculated according to the formula ET=1−(τDA/τD), where τD is the lifetime of donor (mCer-TG2) and τDA is the lifetime of donor-acceptor pair (mCer-TG2—YFP).

TG2 [4] = biological target: T1, TG2; experiment: Colorimetric transamidase activity assay (AL5 substrate), hTG2; assay type: biochemical; settings: Table 5
Experimental: In Vitro Assays. Colorimetric transamidase activity assay. The activities of hTG1, hTG2 and hTG6 were measured via a colorimetric assay using the chromogenic substrate Cbz-Glu(γ-p-nitrophenyl ester)Gly (AL5). The assay was conducted at 25° C. in 100 mM MOPS buffer (pH 6.5) containing 3.0 mM CaCl2 and 50 μM EDTA. […] A stock solution of AL5 was prepared in DMSO such that the final concentration of this co-solvent was constant at 2.5% v/v. Stock solutions of the inhibitors were made in the buffer system previously described. The reaction was initiated with the addition of 40-60 mU/mL of the respective enzyme (0.10 μM hTG1, 0.25 μM hTG2 or 0.32 μM hTG6). Product formation was monitored at 405 nm in a polystyrene 96-well microplate using a BioTek Synergy 4 plate reader. […] Observed first-order rate constants of inactivation (kobs) were determined from non-linear regression fit to a mono-exponential model (Equation 1) of the observed absorbance of the enzymatic hydrolysis product, p-nitrophenolate (pNP). […] Experiments were done in triplicate and variation between repeats was less than 30%.

TG2 [5] = biological target: T1, TG2; experiment: Kinetic inactivation of purified recombinant human TG2, continuous spectrophotometric activity assay (Examples 3, 10); assay type: biochemical; parameters: made in house; settings: read-out: kinact/Ki (μM^−1 min^−1); Table 4; for ^a no saturation observed, efficiency obtained from initial slope
Experimental: Kinetic studies were carried out in vitro, using purified recombinant human TG2 (Roy, I. et al., Protein Expr. Purif. 87: 41-46, 2013) and a direct, continuous spectrophotometric activity assay (Leblanc, A. et al., Biochemistry 40: 8335-8342, 2001).
Kinetics. Kinetic runs were performed at 25° C. in 100 mM MOPS buffer (pH 7.0) containing 3 mM CaCl2 and 50 μM EDTA. […] Stock solutions of the substrate and inhibitors were prepared in DMF such that the final concentration of this co-solvent was constant at 10% v/v. Reactions were initiated with the addition of enzyme with an activity of approximately 0.05 U/mL. Kinetic evaluation was carried out by the method of Stone and Hofsteenge (Stone, S. R. and Hofsteenge, J., Biochem. J. 230: 497-502, 1985). […] Observed first-order rate constants of inactivation were determined from non-linear regression, to a mono-exponential model. These rate constants were in turn fit to equation 1 by non-linear regression, providing the kinetic parameters
Kinetic parameters were determined as described above.

Chain of FAK kinase (Q05397 whole entry): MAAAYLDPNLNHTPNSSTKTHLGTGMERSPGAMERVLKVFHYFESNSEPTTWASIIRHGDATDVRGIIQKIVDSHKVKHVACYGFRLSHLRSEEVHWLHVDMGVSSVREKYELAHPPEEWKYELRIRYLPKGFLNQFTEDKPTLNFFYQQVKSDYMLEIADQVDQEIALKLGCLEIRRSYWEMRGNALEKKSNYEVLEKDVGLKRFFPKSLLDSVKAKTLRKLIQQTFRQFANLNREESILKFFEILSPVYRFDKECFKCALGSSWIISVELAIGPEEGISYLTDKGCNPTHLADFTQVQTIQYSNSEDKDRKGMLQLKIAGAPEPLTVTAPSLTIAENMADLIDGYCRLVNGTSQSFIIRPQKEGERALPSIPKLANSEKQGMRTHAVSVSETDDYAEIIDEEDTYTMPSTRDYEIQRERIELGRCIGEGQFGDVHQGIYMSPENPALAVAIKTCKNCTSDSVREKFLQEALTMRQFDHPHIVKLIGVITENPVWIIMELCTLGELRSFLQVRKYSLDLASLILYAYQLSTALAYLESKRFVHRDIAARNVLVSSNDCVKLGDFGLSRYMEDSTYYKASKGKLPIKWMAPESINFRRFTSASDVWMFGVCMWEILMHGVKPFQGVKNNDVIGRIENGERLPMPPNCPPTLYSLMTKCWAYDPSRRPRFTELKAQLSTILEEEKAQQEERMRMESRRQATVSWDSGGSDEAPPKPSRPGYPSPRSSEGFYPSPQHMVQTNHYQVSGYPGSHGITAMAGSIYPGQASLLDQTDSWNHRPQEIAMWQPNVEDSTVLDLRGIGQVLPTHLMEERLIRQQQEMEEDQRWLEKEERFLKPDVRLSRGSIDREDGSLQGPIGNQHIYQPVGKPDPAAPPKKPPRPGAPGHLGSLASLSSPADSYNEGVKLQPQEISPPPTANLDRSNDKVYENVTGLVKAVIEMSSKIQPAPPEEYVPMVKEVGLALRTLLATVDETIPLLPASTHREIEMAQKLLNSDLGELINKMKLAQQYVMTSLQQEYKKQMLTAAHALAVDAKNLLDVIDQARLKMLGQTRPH

COC(=O)[C@H](CC(C)C)NC(=O)[C@@H]1CCCN1C(=O)[C@@H](NC(=O)[C@H](CCC(=O)C=[N+]=[N-])NC(=O)OCc1ccccc1)C(C)C [Z-DON] (Cbz-[DON]VPL-OMe)
EGFR levels (EGFR): reduced the levels of EGFR
proliferation of GBM cell lines [1]: reduce proliferation in two out of three glioblastoma multiforme (GBM) cell lines tested

CS(=O)(=O)c1cccc(CNc2nc(Nc3ccc4c(c3)CCC(=O)N4)ncc2C(F)(F)F)c1 [PF-573228, reference compound]
spheroid formation with kinase inhibitor (SCC-13 cells): markedly reduced spheroid formation
FAK kinase activity (FAK kinase): reduced FAK kinase activity

NCCCCCNC(=S)Nc1ccc2c(c1)C(=O)OC21c2ccc(O)cc2Oc2cc(O)ccc21 [FC, fluorescein cadaverine, reference compound]
spheroid number, pre-formed spheroids (SCC-13 cells; spheroids grown for 8 days, then treated): reduced spheroid number

C=CC(=O)NCCCC[C@H](NC(=O)OCc1ccccc1)C(=O)N1CCN(C(=O)c2cccc3ccccc23)CC1 [AA9, (S)-benzyl (1-(4-(1-naphthoyl)piperazin-1-yl)-6-acrylamido-1-oxohexan-2-yl)carbamate]
GTP binding of hTG2 after incubation with inhibitor (TG2 [2]): abolish GTP binding nearly completely

CC(=O)N[C@@H](CSC(=O)[C@]1([C@@H](O)C(C)C)NC(=O)[C@H](C)[C@@H]1O)C(=O)O [lactacystin]
ΔNp63α reduction caused by YAP1-siRNA (ΔNp63α): partially reversed

CNc1ccc2oc(C[C@H]3O[C@@]4(CC[C@H]3C)O[C@H]([C@H](C)C(=O)c3ccc[nH]3)[C@H](C)C[C@H]4C)nc2c1C(=O)O [Compound A23187, reference compound]
fluorescence lifetime of mCer-TG2-YFP [3]: ~3.1 ns

CN(C)c1cccc2c(S(=O)(=O)NCCCCCN)cccc12 [MDC, monodansylcadaverine]
EGFR levels (EGFR): reduced the levels of EGFR
EGFR phosphorylation in response to EGF (EGFR; U87 cells, 30 min pretreatment): greatly reduced the extent of EGFR phosphorylation
proliferation of GBM cell lines [1]: reduce proliferation in two out of three glioblastoma multiforme (GBM) cell lines tested

CC(C)(C)n1nc(-c2ccc(Cl)cc2)c2c(N)ncnc21 [PP2, reference compound]
spheroid formation with kinase inhibitor (SCC-13 cells): suppressed spheroid formation

C=CC(=O)NCCCC[C@H](NC(=O)OCc1ccccc1)C(=O)NCCCCNS(=O)(=O)c1cccc2c(N(C)C)cccc12 [Compound 109, (S)-benzyl (6-acrylamido-1-((4-(5-(dimethylamino)naphthalene-1-sulfonamido)butyl)amino)-1-oxohexan-2-yl)carbamate]
kinact (TG2 [4]; read-out: kinact (converted)): 0.0365 s⁻¹
kinact/KI (TG2 [4]; read-out: kinact/KI (10^3M^−1 min^−1)): 1350 M⁻¹ s⁻¹
melting point: 54 to 56 °C
kinact/KI (TG2 [5]): 883 M⁻¹ s⁻¹
